Source: US20070112015A1, “Substituted dihydropyridines and methods of use” (ChemoCentryx, Inc., priority 2005, published 2007)

molecular target: T1, human C5a receptor (Homo sapiens, UniProt P21730); assay: Inhibition of C5aR ligand binding (125I labeled C5a); details: 125I labeled C5a binding to C5aR expressing cells (L1.2 C5aR cells or neutrophils)
T1 construct: expressed in transfected cells; alternatively isolated human neutrophils (endogenous receptor)
T1 sequence (P21730 1-350): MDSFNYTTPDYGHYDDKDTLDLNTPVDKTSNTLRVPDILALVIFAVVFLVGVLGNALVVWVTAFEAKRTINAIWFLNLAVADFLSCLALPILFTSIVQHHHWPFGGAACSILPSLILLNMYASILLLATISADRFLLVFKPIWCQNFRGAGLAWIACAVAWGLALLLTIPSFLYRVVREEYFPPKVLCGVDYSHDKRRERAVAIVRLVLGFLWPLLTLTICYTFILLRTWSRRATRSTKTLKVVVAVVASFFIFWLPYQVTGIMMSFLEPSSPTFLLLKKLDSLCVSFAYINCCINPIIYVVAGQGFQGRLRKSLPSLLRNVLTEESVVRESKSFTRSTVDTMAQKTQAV
Description: L1.2 cells (ATCC #HB-12624) were transfected with a mammalian expression vector constitutively expressing the human C5a receptor (Genbank accession # NM_001736). A stable cell line was produced by selection with G418 for the co-expressed resistance marker. These cells were cultured as a suspension in RPMI-1640 medium supplemented with 2 mM L-glutamine, 1.5 g/L sodium bicarbonate, 4.5 g/L glucose, 10 mM HEPES, 1 mM sodium pyruvate, and 10% FBS. Cells were grown under 5% CO2/95% air, 100% humidity at 37° C. and subcultured twice weekly at 1:6 (cells were cultured at a density range of 1×10^5 to 2×10^6 cells/mL) and harvested at 1×10^6 cells/mL. L1.2 C5aR cells express C5a receptor and can be used in C5aR ligand binding and functional assays.
Neutrophils were isolated from fresh human blood using density separation and centrifigation. Briefly, whole blood is incubated with equal parts 3% dextran and allowed to separate for 45 minutes. After separation, the top layer is then layered on top of 15 mls of Ficoll (15 mls of Ficoll for every 30 mls of blood suspension) and centrifuged for 30 minutes at 400×g with no brake. The pellet at the bottom of the tube is then isolated and resuspended into PharmLyse RBC Lysis Buffer (BD Biosciences, San Jose, Calif.) after which the sample is again centrifuged for 10 minutes at 400×g with brake. The remaining cell pellet is resuspended as appropriate and consists of isolated neutrophils.
C5aR expressing cells were centrifuged and resuspended in assay buffer (20 mM HEPES pH 7.1, 140 mM NaCl, 1 mM CaCl2, 5 mM MgCl2, and with 0.2% bovine serum albumin) to a concentration of 5×10^6 cells/mL for L1.2 C5aR cells and […]. Binding assays were set up as follows. 0.1 mL of cells (5×10^5 L1.2 C5aR cells/well or 1×10^5 neutrophils) was added to the assay plates containing the compounds, giving a final concentration of ˜2-10 μM each compound for screening (or part of a dose response for compound IC50 determinations). Then 0.1 mL of ^125I labeled C5a (obtained from Perkin Elmer Life Sciences, Boston, Mass.) diluted in assay buffer to a final concentration of ˜50 pM, yielding ˜30,000 cpm per well, was added (using ^125I labeled C5a with L1.2 C5aR cells and with neutrophils), the plates sealed and incubated for approximately 3 hours at 4° C. on a shaker platform. Reactions were aspirated onto GF/B glass filters pre-soaked in 0.3% polyethyleneimine (PEI) solution, on a vacuum cell harvester (Packard Instruments; Meriden, Conn.). Scintillation fluid (40 μl; Microscint 20, Packard Instruments) was added to each well, the plates were sealed and radioactivity measured in a Topcount scintillation counter (Packard Instruments). Control wells containing either diluent only (for total counts) or excess C5a (1 µg/mL, for non-specific binding) were used to calculate the percent of total inhibition for compound. The computer program Prism from GraphPad, Inc. (San Diego, Calif.) was used to calculate IC50 values. IC50 values are those concentrations required to reduce the binding of radiolabeled C5a to the receptor by 50%. (For further descriptions of ligand binding and other functional assays, see Dairaghi, et al., J. Biol. Chem. 274:21569-21574 (1999), Penfold, et al., Proc. Natl. Acad. Sci. USA. 96:9839-9844 (1999), and Dairaghi, et al, J. Biol. Chem. 272:28206-28209 (1997)).
To evaluate small organic molecules that prevent the C5a receptor from binding ligand, an assay was employed that detected radioactive ligand (i.e, C5a) binding to cells expressing C5aR on the cell surface (for example, L1.2 C5AR cells or isolated human neutrophils). For compounds that inhibited binding, whether competitive or not, fewer radioactive counts are observed when compared to uninhibited controls.
Equal numbers of cells were added to each well in the plate. The cells were then incubated with radiolabeled C5a. Unbound ligand was removed by washing the cells, and bound ligand was determined by quantifying radioactive counts. […]

| SMILES | IC50 [nM] |
| --- | --- |
| CC1=C(C(=O)OC2CCCC2)C(c2cccc(O)c2)C2=C(CC(c3ccc(C(F)(F)F)cc3)CC2=O)N1 (stereo not shown) [Compound 1.003] | < 1000 |
| CC1=C(C(=O)OC2CCCC2)C(c2cccc(O)c2)C2=C(CC(C3CCCCC3)CC2=O)N1 (stereo not shown) [Compound 1.004] | < 1000 |
| CC1=C(C(=O)OC2CCCC2)C(c2cccc(O)c2)C2=C(CC(c3ccc(-c4ccccc4)cc3)CC2=O)N1 (stereo not shown) [Compound 1.005] | 1000 to 10000 |
| CC1=C(C(=O)OC2CCCC2)C(c2cccc(O)c2)C2=C(CC(c3ccc4ccccc4c3)CC2=O)N1 (stereo not shown) [Compound 1.006] | < 1000 |
| CC1=C(C(=O)OC2CCCC2)C(c2cccc(O)c2)C2=C(CN(c3ccccc3)CC2=O)N1 (stereo not shown) [Compound 1.007] | 1000 to 10000 |
| O=C1CC(c2ccc3c(c2)OCO3)CC2=C1C(c1cccc(O)c1)C(C(=O)OC1CCCC1)=C(CC1CCCC1)N2 (stereo not shown) [Compound 1.009] | < 1000 |
| CC(C)C1=C(C(=O)OC2CCCC2)C(c2cccc(O)c2)C2=C(CC(c3c(Cl)cncc3Cl)CC2=O)N1 (stereo not shown) [Compound 1.010] | 1000 to 10000 |

Now from value to compound:

| IC50 [nM] | SMILES |
| --- | --- |
| < 1000 | Cc1cc(C)c(C2CC(=O)C3=C(C2)NC(C2CC2)=C(C(=O)OC2CCCC2)C3c2cccc(O)c2)c(C)c1 (stereo not shown) [Compound 1.001] |
| < 1000 | CC1=C(C(=O)OC2CCCC2)C(c2cccc(O)c2)C2=C(CC(c3ccc(C)c(F)c3)CC2=O)N1 (stereo not shown) [Compound 1.002] |
| < 1000 | CCOC(=O)C1=C(CCC2CCCC2)NC2=C(C(=O)CC(c3c(C)cc(C)cc3C)C2)C1c1cccc2[nH]ccc12 (stereo not shown) [Compound 1.008] |
